From patent US11059780B2, “Substituted pyrrolidine compound and use thereof” (Takeda Pharmaceutical Company Limited, priority 2017, dated 2021)

Target: T1, human orexin type 2 receptor (hOX2R) (Homo sapiens, UniProt O43614)
T1 construct: expressed in transfected cells
T1 sequence (O43614 1-444): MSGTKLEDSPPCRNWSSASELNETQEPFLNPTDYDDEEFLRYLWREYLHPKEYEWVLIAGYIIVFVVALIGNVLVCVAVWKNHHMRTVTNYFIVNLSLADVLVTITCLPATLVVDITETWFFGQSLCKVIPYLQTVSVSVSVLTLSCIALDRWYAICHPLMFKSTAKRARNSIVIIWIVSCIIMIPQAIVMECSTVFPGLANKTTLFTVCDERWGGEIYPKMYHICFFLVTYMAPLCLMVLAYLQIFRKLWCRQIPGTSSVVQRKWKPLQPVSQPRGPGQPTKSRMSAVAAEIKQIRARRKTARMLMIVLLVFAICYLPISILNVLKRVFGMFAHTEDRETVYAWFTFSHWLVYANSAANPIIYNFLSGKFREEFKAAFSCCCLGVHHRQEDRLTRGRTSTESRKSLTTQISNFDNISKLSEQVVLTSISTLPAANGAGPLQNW
Assay: Measurement of orexin type 2 receptor agonist activity (Fluo-4 calcium fluorescence, CHO cells forcibly expressing human OX2 receptor)
Assay type: cell-based
Conditions: test compound 3 μM, DMSO = 0%, orexin A (human) 10 nM = 100%
From the text: Experimental Example 1: Obtainment of Cell Stably Expressing Human Orexin Type 2 Receptor (hOX2R)
To obtain a cell clone stably expressing human orexin type 2 receptor, human orexin type 2 receptor cDNA was inserted into pcDNA3.1(+) plasmid vector (Invitrogen), and a plasmid DNA for expression of human orexin type 2 receptor (pcDNA3.1(+)/hOX2R) was cloned. The plasmid DNA was introduced into CHO-dhfr cell by an electroporation method, and human orexin type 2 receptor expressing clone cells were obtained by limiting dilution method by using G418 drug resistance as a selection marker.
Experimental Example 2: Measurement of Orexin Type 2 Receptor Agonist Activity
CHO cells forcibly expressing human OX2 receptor were seeded in each well of 384 well black transparent bottom plate (BD Falcon) at 7,500 cells/well, and cultured for one day in a 5% CO2 incubator at 37° C. After removal of the medium in the cell plate, assay buffer A containing a calcium indicator (HBSS (Life Technologies), 20 mM HEPES (Life Technologies), 0.1% BSA (Wako Pure Chemical Industries, Ltd.), 2.5 μg/mL Fluo-4 AM (DOJINDO Chemical), 0.08% Pluronic F127 (DOJINDO Chemical), 1.25 mM probenecid (DOJINDO Chemical)) was added at 30 μL/well. The plate was stood for 30 min in a 5% CO2 incubator at 37° C., and further stood at room temperature for 30 min. A test compound prepared by diluting with assay buffer B (HBSS, 20 mM HEPES, 0.1% BSA) was added at 10 μL/well, and the fluorescence value was measured by FDSSpCELL (Hamamatsu Photonics K.K.) every one sec for 1 min, and thereafter every two sec for 1 min 40 sec. The activity (%) of the test compound was calculated assuming that variation in the fluorescence value when DMSO was added instead of the test compound was 0% […], and variation in the fluorescence value when orexin A (human) (PEPTIDE INSTITUTE, INC.) was added at the final concentration of 10 nM was 100% […]. The activity of each compound at the concentration of 3 μM was shown below.

Compared with `CCc1cccc(C)c1C(=O)N1C[C@@H](OC)[C@H](Oc2cccc(CS(=O)(=O)N(C)[C@@H]3C[C@H]4CC[C@@H](C3)O4)c2)C1` [Example 149, 1-(3-(((3R,4R)-1-(2-ethyl-6-methylbenzoyl)-4-methoxypyrrolidin-3-yl)oxy)phenyl)-N-methyl-N-((3-exo)-8-oxabicyclo[3.2.1]oct-3-yl)methanesulfonamide], `CCc1cccc(C)c1C(=O)N1C[C@@H](OC)[C@H](Oc2cccc(C(F)(F)S(=O)(=O)N(C)C3CCOCC3)c2)C1` (relative stereo) [Example 150, trans-1-(3-((1-(2-ethyl-6-methylbenzoyl)-4-methoxypyrrolidin-3-yl)oxy)phenyl)-1,1-difluoro-N-methyl-N-(tetrahydro-2H-pyran-4-yl)methanesulfonamide] is lower in “OX2R agonist activity (3 μM, %)” value: 110% for the first, 43% for the second.

First: CO[C@@H]1CN(C(=O)c2cc(C)ccc2C)C[C@H]1Oc1cccc(NS(=O)(=O)N2CCOCC2)c1 (relative stereo) [Example 4, trans-N-(3-((1-(2,5-dimethylbenzoyl)-4-methoxypyrrolidin-3-yl)oxy)phenyl)morpholine-4-sulfonamide]
Second: CO[C@@H]1CN(C(=O)c2cc(C)ccc2C)C[C@H]1Oc1cccc(NS(=O)(=O)N2CCCC2)c1 (relative stereo) [Example 22, trans-N-(3-((1-(2,5-dimethylbenzoyl)-4-methoxypyrrolidin-3-yl)oxy)phenyl)pyrrolidine-1-sulfonamide]
The “OX2R agonist activity (3 μM, %)” value of the first is higher: 87% for the first, 65% for the second.

Compared with `COCC1CCCN1S(=O)(=O)Nc1cccc(O[C@@H]2CN(C(=O)c3cc(C)ccc3C)C[C@H]2OC)c1` (relative stereo) [Example 50, trans-N-(3-((1-(2,5-dimethylbenzoyl)-4-methoxypyrrolidin-3-yl)oxy)phenyl)-2-(methoxymethyl)pyrrolidine-1-sulfonamide], `CO[C@@H]1CN(C(=O)c2cc(C)ccc2C)C[C@H]1Oc1cccc(CS(=O)(=O)N2CCOCC2CO)c1` (relative stereo) [Example 11, trans-(2,5-dimethylphenyl)(3-(3-(((3-(hydroxymethyl)morpholin-4-yl)sulfonyl)methyl)phenoxy)-4-methoxypyrrolidin-1-yl)methanone] is lower in “OX2R agonist activity (3 μM, %)” value: 87% for the first, 62% for the second.

Compared with `Cc1ccc(C)c(C(=O)N2CC[C@H](Oc3cccc(CS(=O)(=O)N4CCCC4c4ccccn4)c3)C2)c1` (stereo partly drawn) [Example 25, (2,5-dimethylphenyl)((3S)-3-(3-(((2-(pyridin-2-yl)pyrrolidin-1-yl)sulfonyl)methyl)phenoxy)pyrrolidin-1-yl)methanone], `CO[C@@H]1CN(C(=O)c2cc(C)ccc2C)C[C@H]1Oc1cccc(CS(=O)(=O)N2CCC[C@H]2c2ccccn2)c1` [Example 57, (2,5-dimethylphenyl)((3R,4R)-3-methoxy-4-(3-((((2S)-2-(pyridin-2-yl)pyrrolidin-1-yl)sulfonyl)methyl)phenoxy)pyrrolidin-1-yl)methanone] is higher in “OX2R agonist activity (3 μM, %)” value: 29% for the first, 55% for the second.

Going from `CO[C@@H]1CN(C(=O)c2cc(C)ccc2C)C[C@H]1Oc1cccc(CS(=O)(=O)N(C)c2ccncc2)c1` (relative stereo) [Example 7, trans-1-(3-((1-(2,5-dimethylbenzoyl)-4-methoxypyrrolidin-3-yl)oxy)phenyl)-N-methyl-N-(pyridin-4-yl)methanesulfonamide] to `COC1CN(C(=O)c2cc(C)ccc2C)CC1Oc1cccc(CS(=O)(=O)N(C)[C@@H]2CCOC[C@H]2F)c1` (relative stereo) [Example 142, trans-1-(3-((1-(2,5-dimethylbenzoyl)-4-methoxypyrrolidin-3-yl)oxy)phenyl)-N-(3-fluorotetrahydro-2H-pyran-4-yl)-N-methylmethanesulfonamide], the “OX2R agonist activity (3 μM, %)” value rises from 32% to 115%.

Going from `CO[C@@H]1CN(C(=O)c2cc(C)ccc2C)C[C@H]1Oc1cccc(CS(=O)(=O)N2CCCC2Cc2cccnc2)c1` (relative stereo) [Example 36, trans-(2,5-dimethylphenyl)(3-methoxy-4-(3-(((2-(pyridin-3-ylmethyl)pyrrolidin-1-yl)sulfonyl)methyl)phenoxy)pyrrolidin-1-yl)methanone] to `CO[C@@H]1CN(C(=O)c2cc(C)ccc2C)C[C@H]1Oc1cccc(CS(=O)(=O)N2CCCC2c2cnccn2)c1` (relative stereo) [Example 39, trans-(2,5-dimethylphenyl)(3-methoxy-4-(3-(((2-(pyrazin-2-yl)pyrrolidin-1-yl)sulfonyl)methyl)phenoxy)pyrrolidin-1-yl)methanone], the “OX2R agonist activity (3 μM, %)” value falls from 89% to 76%.

Going from `CO[C@@H]1CN(C(=O)c2cc(C)ccc2C)C[C@H]1Oc1cccc(CS(=O)(=O)N2CCC23CCOCC3)c1` (relative stereo) [Example 21, trans-(2,5-dimethylphenyl)(3-methoxy-4-(3-((7-oxa-1-azaspiro[3.5]non-1-ylsulfonyl)methyl)phenoxy)pyrrolidin-1-yl)methanone] to `CO[C@@H]1CN(C(=O)c2cc(C)ccc2C)C[C@H]1Oc1cccc(CS(=O)(=O)N2CCC23CCOC3)c1` (relative stereo) [Example 19, trans-(2,5-dimethylphenyl)(3-methoxy-4-(3-((6-oxa-1-azaspiro[3.4]oct-1-ylsulfonyl)methyl)phenoxy)pyrrolidin-1-yl)methanone], the “OX2R agonist activity (3 μM, %)” value falls from 70% to 67%.

First: CCc1cccc(C)c1C(=O)N1C[C@@H](OC)[C@H](Oc2cccc(C(F)S(=O)(=O)N(C)C3CCOCC3)c2)C1 (relative stereo) [Example 154, trans-1-(3-((1-(2-ethyl-6-methylbenzoyl)-4-methoxypyrrolidin-3-yl)oxy)phenyl)-1-fluoro-N-methyl-N-(tetrahydro-2H-pyran-4-yl)methanesulfonamide]
Second: COc1ccc(C)c(C)c1C(=O)N1C[C@@H](OC)[C@H](Oc2cccc(CS(=O)(=O)N(C)C3CCOCC3)c2)C1 (relative stereo) [Example 162, trans-1-(3-((4-methoxy-1-(6-methoxy-2,3-dimethylbenzoyl)pyrrolidin-3-yl)oxy)phenyl)-N-methyl-N-(tetrahydro-2H-pyran-4-yl)methanesulfonamide]
The “OX2R agonist activity (3 μM, %)” value of the first is higher: 99% for the first, 96% for the second.

First: COc1ccccc1OC(=O)N1C[C@@H](OC)[C@H](Oc2cccc(NS(=O)(=O)N3CC4CC4C3)c2)C1 (stereo partly drawn) [Example 157, 2-methoxyphenyl(3R,4R)-3-(3-((3-azabicyclo[3.1.0]hex-3-ylsulfonyl)amino)phenoxy)-4-methoxypyrrolidine-1-carboxylate]
Second: CO[C@@H]1CN(C(=O)c2c(C)cccc2C2CC2)C[C@H]1Oc1cccc(OS(=O)(=O)N2CCOCC2)c1 (relative stereo) [Example 166, trans-3-((1-(2-cyclopropyl-6-methylbenzoyl)-4-methoxypyrrolidin-3-yl)oxy)phenyl morpholine-4-sulfonate]
The “OX2R agonist activity (3 μM, %)” value of the first is higher: 83% for the first, 41% for the second.

First: CO[C@@H]1CN(C(=O)c2cc(C)ccc2C)C[C@H]1Oc1cccc(CS(=O)(=O)N2CCCC2c2nccs2)c1 (relative stereo) [Example 40, trans-(2,5-dimethylphenyl)(3-methoxy-4-(3-(((2-(1,3-thiazol-2-yl)pyrrolidin-1-yl)sulfonyl)methyl)phenoxy)pyrrolidin-1-yl)methanone]
Second: CO[C@@H]1CN(C(=O)c2cc(C)ccc2C)C[C@H]1Oc1cccc(CS(=O)(=O)N2CCCC2c2ncccn2)c1 (relative stereo) [Example 38, trans-(2,5-dimethylphenyl)(3-methoxy-4-(3-(((2-(pyrimidin-2-yl)pyrrolidin-1-yl)sulfonyl)methyl)phenoxy)pyrrolidin-1-yl)methanone]
The “OX2R agonist activity (3 μM, %)” value of the first is lower: 79% for the first, 98% for the second.
